Earlier results as cited in article PMC3800486 (Amino acids, 2013).

Test system: polo-like kinase 1 (Plk1) polo box domain (PBD)
Conditions: previously shown; ref Yun et al. 2009; Liu et al. 2011; Liu et al. 2012b, a

Ac-Pro-Leu-His-Ser-Pmab-amide
affinity for the Plk1 PBD (in words): good affinity
